This note sets out measurements from patent US20240262833A1, “FUSED HETEROCYCLIC DERIVATIVES AS NEGATIVE ALLOSTERIC MODULATORS OF MGLU7 RECEPTOR” (Addex Pharma S.A., priority 2021, published 2024).

The term IC50 denotes the concentration needed to halve the response being measured.

T1 sequence (Q14831 35-922 isoform Q14831-2): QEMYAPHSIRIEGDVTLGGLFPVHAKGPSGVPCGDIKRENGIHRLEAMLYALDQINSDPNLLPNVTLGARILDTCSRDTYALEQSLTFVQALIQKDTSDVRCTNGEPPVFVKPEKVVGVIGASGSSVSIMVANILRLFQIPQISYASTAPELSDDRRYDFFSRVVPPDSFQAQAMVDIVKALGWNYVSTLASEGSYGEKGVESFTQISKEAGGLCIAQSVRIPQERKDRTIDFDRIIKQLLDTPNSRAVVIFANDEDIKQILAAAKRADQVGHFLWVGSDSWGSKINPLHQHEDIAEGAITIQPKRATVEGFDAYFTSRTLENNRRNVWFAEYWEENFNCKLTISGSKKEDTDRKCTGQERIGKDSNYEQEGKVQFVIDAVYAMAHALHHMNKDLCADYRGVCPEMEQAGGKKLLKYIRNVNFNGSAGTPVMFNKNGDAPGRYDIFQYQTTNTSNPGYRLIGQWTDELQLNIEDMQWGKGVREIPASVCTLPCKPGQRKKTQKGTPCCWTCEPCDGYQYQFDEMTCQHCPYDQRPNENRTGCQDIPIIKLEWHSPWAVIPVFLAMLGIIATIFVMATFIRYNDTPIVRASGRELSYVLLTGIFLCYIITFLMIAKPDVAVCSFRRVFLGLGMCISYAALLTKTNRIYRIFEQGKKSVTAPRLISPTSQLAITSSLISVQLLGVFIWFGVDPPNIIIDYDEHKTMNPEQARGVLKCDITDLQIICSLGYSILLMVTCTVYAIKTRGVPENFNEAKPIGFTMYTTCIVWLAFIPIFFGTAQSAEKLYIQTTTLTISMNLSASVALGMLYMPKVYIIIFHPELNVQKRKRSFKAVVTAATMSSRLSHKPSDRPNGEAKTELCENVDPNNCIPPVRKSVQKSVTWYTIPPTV

This test addresses T1, human metabotropic glutamate 7 receptor (hmGlu7) (Homo sapiens, UniProt Q14831).
T1 construct: expressed in transfected cells
Kind of test: mGlu7 assay on HEK-expressing human mGlu7: fluorescent cell based Ca2+ mobilization assay (FLIPR), inhibition of EC80 L-AP4 response. Conditions: HEK-293 cells expressing hmGlu7; EC80 L-AP4 stimulation; mean of at least three independent experiments in duplicate; read-out: Ca2+ Flux (mean IC50). An excerpt: mGlu7 Assay on HEK-Expressing Human mGlu7
The cDNA encoding the human metabotropic glutamate 7 receptor (hmGlu7), (accession number NM_181874.2, NCBI Nucleotide database browser), was subcloned into an expression vector containing also the hygromycin resistance gene. In parallel, the cDNA encoding a G protein allowing redirection of the activation signal to intracellular calcium flux was subcloned into a different expression vector containing also the Puromycin resistance gene. Transfection of both these vectors into HEK293 cells with PolyFect reagent (Qiagen) according to supplier's protocol, and hygromycin and puromycin treatment allowed selection of antibiotic resistant cells which had integrated stably one or more copies of the plasmids. Positive cellular clones expressing hmGlu7 were identified in a functional assay measuring changes in calcium fluxes in response to glutamate and L-AP4 or known mGlu7 orthosteric antagonists.
HEK-293 cells expressing hmGlu7 were maintained in media containing DMEM, Fetal Bovine Serum (10%), Glutamax™ (2 mM), penicillin (100 units/mL), streptomycin (100 μg/mL), geneticin (100 μg/mL) and hygromycin-B (40 μg/mL) and puromycin (1 μg/mL) at 37° C. with 5% CO2 in a humidified atmosphere.
Fluorescent Cell Based-Ca^2+ Mobilization Assay Human mGlu7 HEK-293 cells were plated out 24 hours prior to a fluorescent cell-based calcium mobilization assay using FLIPR^384 assay (Molecular Device, Sunnyvale, CA, USA) in black-walled, clear-bottomed, poly-L-ornithine-coated 384-well plates at a density of 25,000 cells/well in a glutamine/glutamate free DMEM medium containing fetal bovine serum (10%), penicillin (100 units/mL), streptomycin (100 μg/mL) and doxycyline (1 μg/ml) at 37° C. with 5% CO2 in a humidified atmosphere.
On the day of the assay, the medium was aspirated and the cells were loaded with a 3 μM solution of Fluo4-AM (LuBioScience, Lucerne, Switzerland) in 0.03% pluronic acid. After 1 hour at 37° C./5% CO2, the non incorporated dye was removed by washing cell plate with the assay buffer. All assays were performed in a pH 7.4 buffered-solution containing 20 mM HEPES, 143 mM NaCl, 6 mM KCl, 1 mM MgSO4, 1 mM CaCl2, 0.125 mM sulfinpyrazone and 0.1% glucose.
After 10 s of basal fluorescence recording, various concentrations of the compounds of the invention were added to the cells. Changes in fluorescence levels were first monitored for 180 s in order to detect any agonist activity of the compounds. Then the cells were stimulated by an EC80 L-AP4 concentration for an additional 110 s in order to measure inhibiting activities of the compounds of the invention. EC80 L-AP4 concentration is the concentration giving 80% of the maximal glutamate response.
The concentration-response curves of L-AP4 or representative compounds of the present invention were generated using the Prism GraphPad software (Graph Pad Inc, San Diego, USA). The curves were fitted to a four-parameter logistic equation: […]
allowing determination of IC50 values.
The Table 3 below represents the mean IC50 obtained from at least three independent experiments of selected molecules performed in duplicate.
In general terms: Calcium flux is commonly read through the fluorescence of an indicator in the cells.
`Cc1ccc(-n2c(C)c3cnn(-c4ccccc4)c(=O)c3c2C)cc1` [1-1]: the IC50 is less than 100 nM.
As to `Cc1c2cnn(-c3ccccn3)c(=O)c2c(C)n1-c1ccc(Cl)cc1` [1-3], the IC50 is 100 to 1000 nM.
With `Cc1c2cnn(-c3ccccc3)c(=O)c2c(C)n1-c1ccccc1` [1-4], the IC50 lay within 100 to 1000 nM.
Then `COc1ccccc1-n1ncc2c(C)n(-c3ccccc3)c(C)c2c1=O` [1-5], with 1000 to 10000 nM; and `Cc1cccc(-n2c(C)c3cnn(-c4ccccc4)c(=O)c3c2C)c1` [1-6], with less than 100 nM.
Then `Cc1ccccc1-n1c(C)c2cnn(-c3ccccc3)c(=O)c2c1C` [1-7], with 100 to 1000 nM; and `Cc1c2cnn(-c3ccccc3)c(=O)c2c(C)n1-c1ccc(Cl)cc1` [1-8], with 100 to 1000 nM; and `Cc1c2cnn(-c3cccnc3)c(=O)c2c(C)n1-c1ccccc1` [1-9], with 100 to 1000 nM.
As to `Cc1c2cnn(-c3cccc(F)c3)c(=O)c2c(C)n1-c1ccccc1` [1-10], the IC50 was 100 to 1000 nM.
`Cc1c2cnn(-c3ccc(F)cc3)c(=O)c2c(C)n1-c1ccccc1` [1-11]: the IC50 is less than 100 nM.
The result for `COc1cccc(-n2ncc3c(C)n(-c4ccccc4)c(C)c3c2=O)c1` [1-12] reads less than 100 nM; that for `COc1ccc(-n2ncc3c(C)n(-c4ccccc4)c(C)c3c2=O)cc1` [1-13, 2-(4-Methoxyphenyl)-5,7-dimethyl-6-phenyl-2,6-dihydro-1H-pyrrolo[3,4-d]pyridazin-1-one], 100 to 1000 nM; that for `Cc1cccc(-n2ncc3c(C)n(-c4ccccc4)c(C)c3c2=O)c1` [1-14], less than 100 nM.
Turning to `Cc1ccc(-n2ncc3c(C)n(-c4ccccc4)c(C)c3c2=O)cc1` [1-15], the IC50 was less than 100 nM.
Then `Cc1c2cnn(-c3cccc(C#N)c3)c(=O)c2c(C)n1-c1ccccc1` [1-16], with 100 to 1000 nM.
Then `Cc1c2cnn(-c3ccc(C#N)cc3)c(=O)c2c(C)n1-c1ccccc1` [1-17], with 100 to 1000 nM; and `COc1ccccc1-n1c(C)c2cnn(-c3ccccc3)c(=O)c2c1C` [1-18], with 100 to 1000 nM.
The result for `Cc1c2cnn(-c3ccccc3)c(=O)c2c(C)n1-c1ccccc1Cl` [1-19] reads 100 to 1000 nM; that for `Cc1c2cnn(-c3ccccc3Cl)c(=O)c2c(C)n1-c1ccccc1` [1-20], 100 to 1000 nM; that for `Cc1c2cnn(-c3ccccn3)c(=O)c2c(C)n1-c1ccccc1` [1-22], 1000 to 10000 nM.
For the molecule `Cc1c2cnn(-c3ccccc3)c(=O)c2c(C)n1-c1ccc(N(C)C)cc1` [1-23], the IC50 fell in the range of 100 to 1000 nM.
On to `COc1ccc(-n2c(C)c3cnn(-c4ccccc4)c(=O)c3c2C)cc1` [1-24], for which the IC50 lay in the range of 100 to 1000 nM.
For `Cc1c2cnn(-c3ccccc3)c(=O)c2c(C)n1-c1ccccn1` [1-25], the IC50 was 1000 to 10000 nM.
Take `CC(=O)c1ccc(-n2ncc3c(C)n(-c4ccccc4)c(C)c3c2=O)cc1` [1-27]: the IC50 was 100 to 1000 nM.
Then `Cc1c2cnn(-c3ccc(S(N)(=O)=O)cc3)c(=O)c2c(C)n1-c1ccccc1` [1-28], with less than 100 nM; and `Cc1c2cnn(-c3ccccc3)c(=O)c2c(C)n1-c1ccccc1F` [1-29], with 100 to 1000 nM.
Regarding `Cc1c2cnn(-c3ccc(S(C)(=O)=O)cc3)c(=O)c2c(C)n1-c1ccccc1` [1-30], the IC50 lay within 100 to 1000 nM.
For `CC(=O)c1ccc(-n2c(C)c3cnn(-c4ccccc4)c(=O)c3c2C)cc1` [1-31], the IC50 is less than 100 nM.
Then `Cc1ccc(-n2c(C)c3cnn(-c4ccccc4)c(=O)c3c2C)c(C)c1` [1-32], with 100 to 1000 nM.
Then `Cc1c2cnn(-c3ccccc3)c(=O)c2c(C)n1-c1cccc(N2CCOCC2)c1` [1-33], with 100 to 1000 nM; and `Cc1c2cnn(-c3ccccc3)c(=O)c2c(C)n1-c1cccc(Br)c1` [1-34, 6-(3-bromophenyl)-5,7-dimethyl-2-phenyl-2,6-dihydro-1H-pyrrolo[3,4-d]pyridazin-1-one], with 1000 to 10000 nM; and `Cc1c2cnn(-c3ccccc3)c(=O)c2c(C)n1-c1cccc(N(C)C)c1` [1-35], with less than 100 nM.
As to `Cc1c2cnn(-c3ccncc3)c(=O)c2c(C)n1-c1ccccc1` [1-37], the IC50 was in the range of 100 to 1000 nM.
Then `COCc1ccc(-n2ncc3c(C)n(-c4ccccc4)c(C)c3c2=O)cc1` [1-38], with less than 100 nM; and `Cc1ccc(-n2c(C)c3cnn(-c4cccnc4)c(=O)c3c2C)cc1` [1-39], with 100 to 1000 nM.
Regarding `Cc1cccc(-n2c(C)c3cnn(-c4cccnc4)c(=O)c3c2C)c1` [1-40], the IC50 lay in the range of 100 to 1000 nM.
Turning to `COc1cccc(-n2c(C)c3cnn(-c4cccnc4)c(=O)c3c2C)c1` [1-41], the IC50 was in the range of 100 to 1000 nM.
With `COCCNc1ccc(-n2c(C)c3cnn(-c4ccccc4)c(=O)c3c2C)cc1` [1-42], the IC50 is 1000 to 10000 nM.
With `COc1cccc(-n2c(C)c3cnn(-c4ccccn4)c(=O)c3c2C)c1` [1-44], the 50% inhibitory concentration (IC50) fell in the range of 100 to 1000 nM.
Turning to `Cc1cccc(-n2c(C)c3cnn(-c4ccccn4)c(=O)c3c2C)c1` [1-45], the IC50 lay in the range of 100 to 1000 nM.
The result for `COc1ccc(-n2c(C)c3cnn(-c4cccnc4)c(=O)c3c2C)cc1` [1-46] reads 100 to 1000 nM; that for `COc1ccc(-n2c(C)c3cnn(-c4ccccn4)c(=O)c3c2C)cc1` [1-47], 100 to 1000 nM; that for `Cc1ccc(-n2c(C)c3cnn(-c4ccccn4)c(=O)c3c2C)cc1` [1-48], 100 to 1000 nM.
Regarding `Cc1c2cnn(-c3ccccc3)c(=O)c2c(C)n1-c1cccc(N2CCCC2=O)c1` [1-49], the half-maximal inhibitory concentration (IC50) fell in the range of 100 to 1000 nM.
Take `Cc1ccc(-n2ncc3c(C)n(-c4ccccc4)c(C)c3c2=O)cn1` [1-50]: the IC50 lay in the range of 100 to 1000 nM.
The result for `COc1ccc(-n2ncc3c(C)n(-c4ccccc4)c(C)c3c2=O)cn1` [1-52] reads 100 to 1000 nM; that for `Cc1c2cnn(-c3ccccn3)c(=O)c2c(C)n1-c1cccc(C(F)(F)F)c1` [1-53], 100 to 1000 nM; that for `Cc1c2cnn(-c3ccccn3)c(=O)c2c(C)n1-c1cccc(C#N)c1` [1-54], 1000 to 10000 nM.
Then `Cc1c2cnn(-c3ccccn3)c(=O)c2c(C)n1-c1ccc2c(c1)OCO2` [1-55], with 100 to 1000 nM.
Regarding `Cc1ccc(-n2c(C)c3cnn(-c4ccccn4)c(=O)c3c2C)nc1` [1-56], the IC50 fell in the range of 1000 to 10000 nM.
Turning to `Cc1c2cnn(-c3ccc(C(N)=O)cc3)c(=O)c2c(C)n1-c1ccccc1` [1-57], the IC50 was in the range of 100 to 1000 nM.
The result for `Cc1c2cnn(-c3ncccn3)c(=O)c2c(C)n1-c1ccccc1` [1-58] reads 1000 to 10000 nM; that for `Cc1c2cnn(-c3ccccn3)c(=O)c2c(C)n1-c1cccc(N2CCCC2)c1` [1-59], less than 100 nM; that for `CCOc1ccc(-n2ncc3c(C)n(-c4ccccc4)c(C)c3c2=O)cc1` [1-60], 100 to 1000 nM.
The result for `COc1cccc(-n2c(C)c3cnn(-c4ccc5ccccc5n4)c(=O)c3c2C)c1` [1-61] reads 100 to 1000 nM; that for `COc1cc(-n2c(C)c3cnn(-c4ccccn4)c(=O)c3c2C)ccn1` [1-62], 1000 to 10000 nM; that for `Cc1c2cnn(-c3cccnc3)c(=O)c2c(C)n1-c1cccc(N2CCOCC2)c1` [1-64], 1000 to 10000 nM.
For `COc1cccc(-n2c(C)c3cnn(-c4ccc(CNC(C)=O)cc4)c(=O)c3c2C)c1` [1-65], the IC50 was less than 100 nM.
Consider `COc1cccc(-n2c(C)c3cnn(-c4ccc(CO)cc4)c(=O)c3c2C)c1` [1-66], for which the IC50 is less than 100 nM.
Regarding `COc1ccc(-n2ncc3c(C)n(-c4cccc(N5CCOCC5)c4)c(C)c3c2=O)cc1` [1-67], the IC50 lay in the range of 100 to 1000 nM.
Then `Cc1c2cnn(-c3ccc(S(N)(=O)=O)cc3)c(=O)c2c(C)n1-c1cccc(N2CCOCC2)c1` [1-68], with 100 to 1000 nM.
Then `COCc1ccc(-n2ncc3c(C)n(-c4cccc(N5CCOCC5)c4)c(C)c3c2=O)cc1` [1-69], with 100 to 1000 nM.
Then `COc1cccc(-n2c(C)c3cnn(-c4ccc(N5CCOCC5)cc4)c(=O)c3c2C)c1` [1-70], with 100 to 1000 nM; and `COc1cccc(-n2c(C)c3cnn(-c4ccc(-c5ccccc5)cc4)c(=O)c3c2C)c1` [1-71], with 100 to 1000 nM; and `COc1cc(-n2c(C)c3cnn(-c4ccccn4)c(=O)c3c2C)ccc1Cl` [1-72], with 1000 to 10000 nM.
